# Test results as given in US8466185B2, “Methods and assays for detecting and treating hypoglycemia” (priority 2008, dated 2013).
# “Also recorded” adds a separate entry of the source.
# Key:
# [1] = system: monkey islets and dispersed single islet cells; assay: [Ca^2+]i imaging (Fura-2) of monkey islets and islet cells; format: cell-based, monkey (Macacca fascicularis); conditions: nifedipine 10 μM; for inhibition of [Ca^2+]i responses to kainate: CNQX 10 μM, La^3+ 30 μM
# Method: Imaging of [Ca^2+]i was performed as described elsewhere (Cabrera et al., 2006). […] Glucose was added to give a final concentration of 3 mM. Islets or dispersed islet cells were incubated in Fura-2 AM (2 μM; 1 hour) and placed in a closed small-volume imaging chamber (Warner Instruments, Hamden, Conn.). Stimuli were applied with the bathing solution. Islets loaded with Fura-2 were excited alternatively at 340 and 380 nm with a monochromator light source (Cairn. Research Optoscan Monochromator, Cairn Research Ltd, Faversham, UK). Images were acquired with a Hamamatsu camera (Hamamatsu Corp, Japan) attached to a Zeiss Axiovert 200 microscope (Carl Zeiss, Jena, Germany). Changes in the 340/380 fluorescence emission ratio over time were analyzed in individual islets and dispersed cells using Kinetic Imaging AQM Advance software (Kinetic Imaging, N.C.). Peak changes in the fluorescence ratio constituted the response amplitude.
# mice [2] = assay: hyperinsulinemic-hypoglycemic clamp in conscious mice; format: in vivo, mouse; conditions: NBQX 10 mg/kg iv versus saline
# Method: To provide a standardized hypoglycemic stimulus we further conducted studies using the hyperinsulinemic-hypoglycemic clamp. At least 4 days before the experiments, mice were anesthetized with isoflurane, and an indwelling catheter was inserted in the left jugular vein and externalized through an incision in a skin flap behind the head. Mice were fasted for 4 hours and placed in individual plastic containers for tail cut sampling. […] A priming dose of insulin (100 mU/kg) was administered, followed by a constant infusion rate of 20 mU/kg/min (Actrapid, Novo Nordisk). The plasma glucose concentration was determined at 10 min intervals using a One Touch Ultra glucose meter. Glucose (30%) was infused at a variable rate to maintain the plasma glucose concentration at the hypoglycemic levels (˜3 mM). At time 50 min, a hyperinsulinemic-hypoglycemic clamp was achieved. Blood glucose levels were kept at the steady state (3 mM) and NBQX was administered as a bolus (10 mg/kg) at time 60 min, followed by infusion (10 mg/kg) until the end of the experiment. A control experiment was performed using saline (0.9% NaCl) following the same protocol used for NBQX. […] Animals were euthanized by an over-dose of pentobarbital.
# mice [3] = format: in vivo, mouse; conditions: NBQX 20 mg/kg i.p.
# Method: (§1) We examined in vivo responses to iGluR agonists by injecting C57BL/6 mice i.p. with either PBS (n=4), monosodium glutamate (30 mg/kg; n=7), or AMPA (15 mg/kg; n=8). To determine whether blocking iGluRs exacerbates insulin-induced hypoglycemia, we injected the AMPA/kainate iGluR antagonist NBQX (Tocris, Ellisville, Mo.) i.p. at 20 mg/kg 30 minutes before mice were treated with insulin to induce hypoglycemia.
# In initial experiments, mice were injected with insulin (1.5 U/kg; i.p.) to induce hypoglycemia.
# [4] = system: isolated human islet cells; assay: whole-cell patch clamp recordings of dispersed human islet cells; format: cell-based; conditions: NBQX 10 μM; kainate 100 μM
# Method: Membrane currents were measured using whole-cell patch clamp recordings of dispersed human islet cells. All recordings were amplified using an EPC10 patch-clamp amplifier and digitized and analyzed using Patchmaster software (Heka Elektronik, Lambrecht, Germany). Pipettes were pulled from borosilicate glass capillaries on a horizontal programmable puller (DMZ Universal Puller, Zeitz-Instrumente, Augsburg, Germany). Pipettes with a resistance of 5-7 MΩ were filled with a pipette solution containing (in mM): 150 NMG (N-methyl-D-Glucamine), 10 EGTA, 1 MgCl2, 2 CaCl2, 5 HEPES and 3 Mg-ATP (pH 7.15). The bath solution contained (in mM): 138 NaCl, 5.6 KCl, 1.2 MgCl2, 2.6 CaCl2, 5 HEPES and 10 TEA (pH7.4). Cells were voltage-clamped at −70 mV. Ligands (e.g. kainate) were applied using the SF-77B Perfusion Fast-Step system (Warner Instruments, Hamden, Conn.), which allows rapid change of solutions bathing a single cell or membrane patch attached to a patch electrode. […] Thus, it is most likely that cells responding to kainate in our electrophysiological experiments were α-cells.
# human islets [5] = assay: in vitro perifusion, glucagon secretion from human islets; format: cell-based; conditions: for effect on basal glucagon secretion or glucagon responses to glutamate: 100 μM
# Method: (§2) A high-capacity, automated perifusion system was developed to dynamically measure hormone secretion from pancreatic islets. A low pulsatility peristaltic pump pushed HEPES-buffered solution (mM: 125 NaCl, 5.9 KCl, 2.56 CaCl2, 1 MgCl2, 25 HEPES, and 0.1% BSA; pH 7.4; and a perifusion rate of 100 μL/min) through a column containing 100 pancreatic islets immobilized in Bio-Gel P-4 Gel (BioRad, Hercules, Calif.). Except otherwise stated, glucose concentration was adjusted to 3 mM for all experiments. Stimuli were applied with the perifusion buffer. The perifusate was collected in an automatic fraction collector designed for a 96 well plate format. The columns containing the islets and the perifusion solutions were kept at 37° C., and the perifusate in the collecting plate was kept at <4° C. Perifusates were collected every minute. Hormone release in the perifusate was determined with the human or mouse Endocrine LINCOplex Kit following manufacturer's instructions (Linco research, St. Charles, Mo.).
# mouse islets [6] = assay: perifusion, glucagon secretion from mouse islets; format: cell-based, mouse (C57Bl/6)
# Method: as §2
# [7] = system: human islets and dispersed single islet cells; assay: [Ca^2+]i imaging (Fura-2) of human islets and dispersed islet cells; format: cell-based; conditions: CNQX 10 μM
# Method: Glucose was added to give a final concentration of 3 mM. Islets or dispersed islet cells were incubated in Fura-2 AM (2 μM; 1 hour) and placed in a closed small-volume imaging chamber (Warner Instruments, Hamden, Conn.). Stimuli were applied with the bathing solution. Islets loaded with Fura-2 were excited alternatively at 340 and 380 nm with a monochromator light source (Cairn. Research Optoscan Monochromator, Cairn Research Ltd, Faversham, UK). Images were acquired with a Hamamatsu camera (Hamamatsu Corp, Japan) attached to a Zeiss Axiovert 200 microscope (Carl Zeiss, Jena, Germany). Changes in the 340/380 fluorescence emission ratio over time were analyzed in individual islets and dispersed cells using Kinetic Imaging AQM Advance software (Kinetic Imaging, N.C.). Peak changes in the fluorescence ratio constituted the response amplitude.
# human islets [8] = format: cell-based; conditions: CNQX 10 μM; measured at 8 minutes after reducing glucose
# Method: Perifusion of the islets was stopped after addition of the stimulus to allow the islet secretory products to accumulate and then resumed after 10 minutes.
# mouse islets [9] = assay: perifusion of mouse islets with β cells destroyed by streptozotocin versus intact islets; format: cell-based; conditions: arginine 5 mM; streptozotocin-treated versus intact islets
# Method: This experiment was performed with mouse islets. Two samples were perifused in parallel (“a” and “b”). In “a” (blue curve and blue bar), but not in “b” (red curve and red bar) the β cells were selectively destroyed with streptozotocin. This absence of β cells generates type 1 diabetes-like condition in vitro. The glucagon release profile in panel “A” was obtained by using this model. […] Note that the non specific stimulus arginine is not able to differentiate a functionally impaired α cell in the absence of β cells.
# At t=5 min, both samples were stimulated with 100 μM kainate for 5 min. The glucose was increased to 11 mM for 10 minutes and decreased again to 3 mM for the duration of the perifusion. At t=45 min, both samples (v) were stimulated with 5 mM Arginine. […] Kainate is a glutamate analog that is not metabolizable, and therefore a preferred agonist of the AMPA/Kainate receptors. Error bars represent the standards deviations for n=3 perifusions. Comparison were performed by an independent t-test.
# For example, in some embodiments the present invention are directed to an in vitro model in which we destroy selectively the beta cells with, for example, streptozotocin, thus creating a situation that mimics type 1 diabetes. The treated islets are composed mainly of alpha cells. […] To examine if alpha cells in islets depleted of beta cells had impaired glutamate signaling, we stimulated them with kainate, an agonist for ionotropic glutamate receptors.
# human islets [10] = assay: in vitro perifusion, insulin release from human islets; conditions: 100 μM
# Method: as §2
# monkey islets [11] = assay: in vitro perifusion, insulin release from monkey islets; conditions: 100 μM; not shown
# C57BL/6 mice = assay: in vivo responses to iGluR agonists injected i.p.; design: species or system mouse
# Method: as §1
# monkey islets [12] = assay: microfluorometric determination of endogenous glutamate release from islets; format: cell-based; conditions: kainate 100 μM; KCl 30 mM
# Method: Endogenous glutamate release from pancreatic islets was measured with the Amplex Red Glutamic Acid Assay Kit (Molecular Probes) adapted for microscopic microfluorometric detection (Akagi et al., 2003). In this assay, released glutamate is a substrate in an enzymatic chain reaction that generates the highly fluorescent product resorufin (Molecular Probes, Eugene, Oreg.). L-glutamate is oxidized by glutamate oxidase to produce α-ketoglutarate, NH4, and H2O2. Hydrogen peroxide reacts with the Amplex Red reagent in a reaction catalyzed by horseradish peroxidase to generate resorufin. Pancreatic islets were allowed to attach to a glass coverslip previously coated with poly-D-lysine. The coverslip was mounted in a closed small-volume imaging chamber (Warner Instruments) and perifused with the HEPES-buffered solution containing the stimuli. Resorufin fluorescence was excited at 510 nm, and the emission recorded at 590 nm using the same imaging system used to measure [Ca^2+]i (see above).
smiles,measurement,setting,value
COC(=O)C1=C(C)NC(C)=C(C(=O)OC)C1c1ccccc1[N+](=O)[O-] [nifedipine],reduction of kainate-induced [Ca^2+]i responses,[1],~60%
NS(=O)(=O)c1cccc2c1c([N+](=O)[O-])cc1nc(O)c(O)nc12 [NBQX],glucose infusion rate needed to maintain glycemia (~3 mM),mice [2],needed larger infusion rates of glucose; also recorded: significantly larger
same,plasma glucagon / glucagon secretion in response to hypoglycemia,mice [2],lower; also recorded: significantly diminished
same,sedation,mice [3],did not cause sedation
same,insulin-induced drop in glucose plasma levels,"mice [3]; insulin 1.5 U/kg i.p., not shown",increased the insulin-induced drop in glucose plasma levels
same,block of kainate-evoked inward currents,[4],could be blocked
NC(C(=O)O)(c1ccc(P(=O)(O)O)cc1)C1CC1 (stereo not shown) [CPPG],effect on basal glucagon secretion or glucagon responses to glutamate,human islets [5],did not affect the glutamate-induced glucagon response; also recorded: did not affect basal glucagon secretion or glucagon responses to glutamate
same,effect on basal or glutamate-induced glucagon secretion,mouse islets [6]; 100 μM,did not affect basal or glutamate-induced glucagon secretion; also recorded: did not affect the glutamate-induced glucagon response
O=[N+]([O-])c1cc2nc(O)c(O)nc2cc1[N+](=O)[O-] [DNQX],block of glutamate-stimulated glucagon release,"mouse islets [6]; DNQX 10 μM, glutamate 100 μM",blocked
N#Cc1cc2[nH]c(=O)c(=O)[nH]c2cc1[N+](=O)[O-] [CNQX],block of glutamate-induced glucagon responses,human islets [5]; CNQX 10 μM,could be blocked
same,block of [Ca^2+]i responses to glutamate,[7],could be blocked
same,inhibition of [Ca^2+]i responses to kainate,[1],inhibited; also recorded: blocked
same,inhibition of glucagon response to lowering glucose from 6 mM to 1 mM,human islets [8],54%
N=C(N)NCCC[C@H](N)C(=O)O [arginine],arginine-induced glucagon release in absence versus presence of β cells,mouse islets [9],not statistically different
Cc1o[nH]c(=O)c1CC(N)C(=O)O (stereo not shown) [AMPA],glucagon release / glucagon secretion,"human islets [5]; agonist 100 μM, 3 mM glucose",elicited strong glucagon secretion; also recorded: Increases in glucagon release could also be elicited
same,insulin release,human islets [10],"Neither kainate (100 μM), glutamate (100 μM), nor AMPA (100 μM) stimulated increases in insulin release"
same,insulin release,monkey islets [11],"Neither kainate (100 μM), glutamate (100 μM), nor AMPA (100 μM) stimulated increases in insulin release"
same,convulsions indicative of central nervous penetration,C57BL/6 mice; AMPA 15 mg/kg i.p.,did not induce convulsions
same,plasma insulin concentrations,"C57BL/6 mice; glutamate 30 mg/kg, AMPA 15 mg/kg, i.p.",not affected; also recorded: did not change
same,plasma glucagon concentrations,"C57BL/6 mice; glutamate 30 mg/kg, AMPA 15 mg/kg, i.p., 30 minutes after treatment",increased plasma glucagon concentrations
same,plasma glucose concentrations,"C57BL/6 mice; glutamate 30 mg/kg, AMPA 15 mg/kg, i.p., thirty minutes after injection",increased glucose levels; also recorded: increased plasma glucose concentrations
same,glucagon release / secretion,mouse islets [6]; 100 μM,stimulated glucagon secretion
NC1(C(=O)O)C[C@H](C(=O)O)[C@H](C(=O)O)C1 (stereo partly shown) [ACPT-1],effect on basal glucagon secretion or glucagon responses to glutamate,human islets [5],did not elicit changes in glucagon secretion; also recorded: did not affect basal glucagon secretion or glucagon responses to glutamate
same,effect on basal or glutamate-induced glucagon secretion,mouse islets [6]; 100 μM,did not affect basal or glutamate-induced glucagon secretion; also recorded: did not elicit changes in glucagon secretion
[La+3] [La^3+],kainate-stimulated glucagon secretion in presence of Ca^2+ channel blockers,human islets [5],strongly diminished
same,inhibition of [Ca^2+]i responses to kainate,[1],inhibited; also recorded: abolished
N[C@@]1(C(=O)O)CC[C@@H](C(=O)O)C1 [trans-ACPD],effect on basal glucagon secretion or glucagon responses to glutamate,human islets [5],did not affect basal glucagon secretion or glucagon responses to glutamate
same,effect on basal glucagon secretion or glucagon responses to glutamate,human islets [5]; listed as tACPD,did not elicit changes in glucagon secretion
same,effect on basal or glutamate-induced glucagon secretion,mouse islets [6]; 100 μM,did not affect basal or glutamate-induced glucagon secretion
same,effect on basal or glutamate-induced glucagon secretion,"mouse islets [6]; 100 μM, listed as tACPD",did not elicit changes in glucagon secretion
[Cl-].[K+] [KCl],glutamate release (resorufin fluorescence),monkey islets [12],induced significant glutamate release; also recorded: elicited large increases in glutamate release
